{"source": "patent US20210207095A1", "about": "“METHODS OF ACTIVATING CELLS VIA PTP 1B INHIBITION” (Monash University, priority 2018, published 2021)", "key": {"[1]": {"experiment": "Body weight, food intake and body composition of tumour-bearing mice treated with PTP1B inhibitor", "assay_type": "in vivo", "protocol": "(§1) FIG. 20. PTP1B-specific inhibitor MSI-1436 (Trodusquemine) repressed tumor growth. 1×10^6 AT-3 OVA breast cancer cells suspended in 20 μl 1×DPBS were transplanted into mammary fat pads of T cell-specific PTP1B-deficient (Lck-Cre; Ptpn1^fl/fl; n=16) and PTP1B wild-type (Ptpn1^fl/fl; n=16) female mice. 17 days after the tumor cell transplantation, MSI-1436 was applied to recipient mice through intraperitoneal injection in 100 μl 0.9% (v/v) saline with the concentration of 10 mg per kilogram body weight. 8 out 16 mice from both Ptpn1^fl/fl and Lck-Cre; Ptpn1^fl/fl recipients were treated every three days with MSI-1436 before the start of the dark cycle. […] This was accompanied by a reduction in food intake and adiposity but no changes in lean mass (data not shown). Representative results (means±SEM) for the indicated numbers of mice and experiments are shown. Significances were determined using 2-tailed Mann-Whitney U Test."}, "[2]": {"tested_on": "AT-3 OVA breast cancer cells", "experiment": "Syngeneic AT-3 OVA breast cancer tumour growth in mice treated with PTP1B inhibitor", "assay_type": "in vivo", "conditions": "for Tumor growth: AT-3 OVA cells in mammary fat pads, Ptpn1fl/fl and Lck-Cre;Ptpn1fl/fl female mice, 10 mg/kg i.p. every three days from day 17, vs untreated Ptpn1fl/fl, p<0.0001, 2-way ANOVA", "protocol": "as §1\nBreast cancer cells were transplanted into mammary fat pads of mice that were “globally” ptp1b-deficient (Ptpn1^−/−) or T-cell specific ptp1b-deficient (Lck-Cre; Ptpn1^fl/fl). Tumour growth was monitored for 28 days after transplantation. […] (FIG. 18A). […] (FIG. 19A)."}}}
{"molecule": "CC(C)[C@@H](CC[C@@H](C)[C@H]1CC[C@H]2[C@@H]3[C@H](O)C[C@H]4C[C@@H](NCCCNCCCCNCCCN)CC[C@]4(C)[C@H]3CC[C@]12C)OS(=O)(=O)O", "note": "[MSI-1436, Trodusquemine]", "values": [{"measurement": "Body weight", "setting": "[1]; Lck-Cre;Ptpn1fl/fl or Ptpn1fl/fl mice, 10 mg/kg i.p. every three days, p<0.0001", "result": "significant weight loss"}, {"measurement": "Adiposity", "setting": "[1]; treated mice, data not shown", "result": "reduction"}, {"measurement": "Food intake", "setting": "[1]; treated mice, data not shown", "result": "reduction"}, {"measurement": "Lean mass", "setting": "[1]; treated mice, data not shown", "result": "no changes"}, {"measurement": "Tumor growth", "setting": "[2]; 10 mg/kg", "result": "significantly suppressed"}, {"measurement": "Tumor growth", "setting": "[2]; listed as MSI1436, 10 mg/kg", "result": "repressed the growth"}, {"measurement": "Tumour burden in mice lacking PTP1B in T cells", "setting": "[2]; Lck-Cre;Ptpn1fl/fl mice, treatment once every 3 days", "result": "did not lead to further reductions in tumour burden"}, {"measurement": "Tumor burden", "setting": "[2]; MSI-1436-treated Ptpn1fl/fl mice vs non-treated counterparts, 10 mg/kg i.p. every three days, p<0.0001", "result": "significant reduction of tumor burden"}]}
